Several values for one entry are separate records, joined by “and”; a condition that tells them apart may be missing. Identical values can stand only once.
Assays:
[1] = Pharmacokinetics in rats (oral and intravenous); type: in vivo, SD rats
Protocol: Intravenous (IV) administration: the drug to be tested was dissolved in DMSO/Solutol/normal saline at a ratio of 5:5:90 (v/v/v), with a concentration of 0.2 mg/mL, and the administration volume was 5 mL/kg. Oral (PO) administration: the drug to be tested was dissolved in DMSO/Tween 80/0.5% CMC-Na solution at a ratio of 2:2:96 (v/v/v), with a concentration of 1 mg/mL, and the administration volume was 10 mL/kg.
Male SD rats weighing 180-280g, 3 rats in each group, fasted for 12h before the experiment, had free access to water, and ate uniformly 4 h after administration. In the IV group, the rat tail vein was administered with a dose of 1mg/kg, and blood was collected at 0.083, 0.25, 0.5, 1.0, 2.0, 4.0, 6.0, 8.0, 12 and 24 h after administration. PO group, administered by gavage at a dose of 10 mg/kg, blood was collected at 0.25, 0.5, 1.0, 2.0, 4.0, 6.0, 8.0, 12 and 24 h after administration. At the above time points, 0.2 mL of blood was collected from the jugular vein and placed in an anticoagulant tube containing EDTA-K2. After the whole blood was collected, it was temporarily stored in an ice water bath, centrifuged at 11000 rpm for 5 min within 30min, the plasma was separated, and then frozen in a -70 °C refrigerator for testing. Tissue distribution group, oral administration, dose of 10mg/kg, 2h after drug administration, rats were anesthetized, bled through the abdominal aorta, and immediately dissected to collect brain, heart, liver, spleen, lung, kidney, colon, muscle. Part of the whole blood was collected and operated in an ice bath. The whole blood was centrifuged at 11000 rpm for 5 min within 30 min, and plasma (about 200 µL) was separated. After the tissue and plasma were collected, they were stored below -60 °C for testing. After each tissue was accurately weighed, the homogenizing reagent acetonitrile-water (1:1, v/v) was added for homogenization, wherein the raion of tissue to homogenizing reagent was 1:4 (g:mL). After homogenization, the samples were sonicated for 10 min, and the supernatant was taken after centrifugation for detection. The drug concentration in the samples was quantified using LC-MS/MS method. Relevant pharmacokinetic parameters Tmax, Cmax, AUC0-∞, t1/2, etc. were calculated using WinNonlin software.

mice = test: Marble burial test (antianxiety); type: in vivo; settings: for number of buried marbles: test with reduced dosage (Figure 5)
Protocol: The drug to be tested was dissolved in DMSO: Tween 80: distilled water at a ratio of 2:2:96 (v/v/v), and then administered to mice by gavage at a volume of 10 mL/kg. […] The blank control group was only given 10 mL/kg of the above solvent.
The mouse marble burial test is a behavioral assay used for the screening of antianxiety drugs. It exploits the natural digging behavior of mice in environments such as burrows or escape tunnels and is sensitive to small changes in behavior caused by genetic manipulation, disease, or drug treatment.
A 5cm thick sawdust litter was laid in a 33 cm×24 cm×28 cm carton, and 4×5 black marbles (4 cm apart) with a total of 20 black marbles of 14mm in diameter were neatly placed on the litter. The mouse was put into the carton facing the corner for 30 minutes. After 30 minutes, the mouse was carefully taken out and the number of marbles buried by the mouse was counted. If more than 2/3 of the marble was buried, it was considered a whole marble. First, a blank experiment was conducted. Before the experiment, the mouse was taken to the experimental environment to adapt. After 1 hour, the experiment began. After the experiment, the mouse was returned to the cage and the number of marbles buried by the mouse was counted. On the second day, the mouse was taken to the experimental environment to adapt for 1 hour before the drug was administered. After the drug administration, the marble burying experiment was conducted for […]. After the experiment, the mouse was carefully taken out and returned to the cage to prevent the mouse from escaping violently and affecting the experimental results. After counting, the black marbles were taken out and wiped with alcohol, and the litter was turned over again to remove the smell of the previous mouse to prevent it from affecting the experiment of the next mouse. The marbles were neatly placed for the experiment of the next mouse.

[2] = male, SD, rat, plasma, 1 mg/kg (IV)
[3] = male, SD, rat, plasma, 10 mg/kg (PO)

t1/2 ([1]; 10 mg/kg (PO), 10 mg/kg): 4.88 ± 0.80 h
F ([1]; 10 mg/kg (PO), oral bioavailability, 10 mg/kg): 62.2% and 62.2 ± 15.9%
AUC(0-inf) [1, 2]: 1170 ± 406 ng·h/mL
Cmax [1, 2]: 772 ± 92 ng/mL
clearance [1, 2]: 15.4 ± 4.98 mL/min/kg
half-life [1, 2]: 3.77 ± 2.14 h
Vd ([1]; male, SD, rat, plasma, 1 mg/kg (IV), read-out: VSS): 2.94 ± 0.79 L/kg
AUC(0-inf) [1, 3]: 7220 ± 1850 ng·h/mL
Tmax [1, 3]: 0.5 h
half-life [1, 3]: 4.88 h
Cmax ([1]; male, rat, plasma, 10 mg/kg (PO), Mean±SD, N=3): 1600 ng/mL
SMILES: Cn1c(=O)n(CCCO)c(=O)c2c1nc(C1(F)CCC(F)(F)CC1)n2Cc1ccc(F)c(Cl)c1 [Example E68, 7-(3-chloro-4-fluorobenzyl)-1-(3-hydroxypropyl)-3-methyl-8-(1,4,4-trifluorocyclohexyl)-3,7-dihydro-1H-purine-2,6-dione]
number of buried marbles (mice; oral 0.03 mg/kg): can reduce
number of buried marbles (mice; oral 0.1 mg/kg, better than the same dose of HC-070): more obvious
number of marbles buried by mice (mice; oral 0.1-1 mg/kg, before versus after administration (Figure 3)): significantly reduced

From patent EP4663640A1 (Shanghai Institute of Materia Medica, Chinese Academy of …, priority 2023, dated 2024)
